Laboratory results from ChEMBL document CHEMBL5352506, “The Zinc-Binding Group Effect: Lessons from Non-Hydroxamic Acid Vorinostat Analogs” (J Med Chem, 2023).

Key:
Histone deacetylase 1 = Histone deacetylase 1 (Homo sapiens, UniProt Q13547); experiment: Inhibition of human recombinant HDAC1 using ArgHisLysLys(Ac) as substrate by fluorescence based analysis
Histone deacetylase 2 = Histone deacetylase 2 (Homo sapiens, UniProt Q92769); experiment: Inhibition of human recombinant HDAC2 using ArgHisLysLys(Ac) as substrate by fluorescence based analysis
Chain of Histone deacetylase 2 (Q92769 whole entry): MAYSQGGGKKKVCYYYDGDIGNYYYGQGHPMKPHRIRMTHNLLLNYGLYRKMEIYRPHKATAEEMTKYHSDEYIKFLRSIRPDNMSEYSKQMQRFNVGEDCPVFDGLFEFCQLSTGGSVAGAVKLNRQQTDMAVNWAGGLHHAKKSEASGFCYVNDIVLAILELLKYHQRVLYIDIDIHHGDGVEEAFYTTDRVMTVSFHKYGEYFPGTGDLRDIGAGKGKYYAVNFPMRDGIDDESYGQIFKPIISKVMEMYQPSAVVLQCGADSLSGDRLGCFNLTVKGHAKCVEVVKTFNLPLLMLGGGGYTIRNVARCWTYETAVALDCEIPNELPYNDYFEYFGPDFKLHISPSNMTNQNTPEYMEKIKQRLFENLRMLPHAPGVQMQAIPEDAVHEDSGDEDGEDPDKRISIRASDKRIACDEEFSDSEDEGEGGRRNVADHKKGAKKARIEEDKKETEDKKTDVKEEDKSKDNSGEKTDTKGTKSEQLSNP

Histone deacetylase 5 = Histone deacetylase 5 (Homo sapiens, UniProt Q9UQL6); experiment: Inhibition of human recombinant HDAC5 using ArgHisLysLys(Ac) as substrate by fluorescence based analysis
Chain of Histone deacetylase 5 (Q9UQL6 whole entry): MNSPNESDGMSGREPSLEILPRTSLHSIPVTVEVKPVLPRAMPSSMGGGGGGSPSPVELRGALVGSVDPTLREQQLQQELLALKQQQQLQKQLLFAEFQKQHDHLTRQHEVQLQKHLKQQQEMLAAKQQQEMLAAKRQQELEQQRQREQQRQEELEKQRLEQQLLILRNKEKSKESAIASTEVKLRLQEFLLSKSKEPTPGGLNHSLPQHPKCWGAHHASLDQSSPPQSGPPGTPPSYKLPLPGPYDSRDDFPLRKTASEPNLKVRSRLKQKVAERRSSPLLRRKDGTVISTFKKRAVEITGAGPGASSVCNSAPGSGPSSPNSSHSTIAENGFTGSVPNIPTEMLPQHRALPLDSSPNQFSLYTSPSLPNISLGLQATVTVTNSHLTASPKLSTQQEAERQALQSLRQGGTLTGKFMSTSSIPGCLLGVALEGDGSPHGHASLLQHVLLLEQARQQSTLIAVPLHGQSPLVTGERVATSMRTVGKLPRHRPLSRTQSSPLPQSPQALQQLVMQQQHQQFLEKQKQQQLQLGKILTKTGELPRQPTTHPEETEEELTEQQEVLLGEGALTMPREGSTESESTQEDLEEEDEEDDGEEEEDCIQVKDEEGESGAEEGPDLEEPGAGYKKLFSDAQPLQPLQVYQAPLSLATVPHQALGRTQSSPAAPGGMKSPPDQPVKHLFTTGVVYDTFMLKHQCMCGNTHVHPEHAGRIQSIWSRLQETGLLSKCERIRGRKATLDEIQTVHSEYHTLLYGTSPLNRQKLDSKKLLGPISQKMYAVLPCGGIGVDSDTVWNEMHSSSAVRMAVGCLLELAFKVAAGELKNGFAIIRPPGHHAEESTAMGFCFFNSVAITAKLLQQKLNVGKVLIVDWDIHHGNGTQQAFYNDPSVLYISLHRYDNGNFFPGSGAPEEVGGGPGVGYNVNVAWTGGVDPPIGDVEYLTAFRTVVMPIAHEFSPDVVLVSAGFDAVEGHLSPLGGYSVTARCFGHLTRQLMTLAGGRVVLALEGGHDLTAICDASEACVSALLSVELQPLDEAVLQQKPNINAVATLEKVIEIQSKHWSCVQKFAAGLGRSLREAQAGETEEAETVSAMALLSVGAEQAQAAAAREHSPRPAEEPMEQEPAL

Histone deacetylase 7 = biological target: T1, Histone deacetylase 7 (Homo sapiens, UniProt Q8WUI4); experiment: Inhibition of human recombinant HDAC7 using ArgHisLysLys(Ac) as substrate by fluorescence based analysis
T1 sequence (Q8WUI4 whole entry): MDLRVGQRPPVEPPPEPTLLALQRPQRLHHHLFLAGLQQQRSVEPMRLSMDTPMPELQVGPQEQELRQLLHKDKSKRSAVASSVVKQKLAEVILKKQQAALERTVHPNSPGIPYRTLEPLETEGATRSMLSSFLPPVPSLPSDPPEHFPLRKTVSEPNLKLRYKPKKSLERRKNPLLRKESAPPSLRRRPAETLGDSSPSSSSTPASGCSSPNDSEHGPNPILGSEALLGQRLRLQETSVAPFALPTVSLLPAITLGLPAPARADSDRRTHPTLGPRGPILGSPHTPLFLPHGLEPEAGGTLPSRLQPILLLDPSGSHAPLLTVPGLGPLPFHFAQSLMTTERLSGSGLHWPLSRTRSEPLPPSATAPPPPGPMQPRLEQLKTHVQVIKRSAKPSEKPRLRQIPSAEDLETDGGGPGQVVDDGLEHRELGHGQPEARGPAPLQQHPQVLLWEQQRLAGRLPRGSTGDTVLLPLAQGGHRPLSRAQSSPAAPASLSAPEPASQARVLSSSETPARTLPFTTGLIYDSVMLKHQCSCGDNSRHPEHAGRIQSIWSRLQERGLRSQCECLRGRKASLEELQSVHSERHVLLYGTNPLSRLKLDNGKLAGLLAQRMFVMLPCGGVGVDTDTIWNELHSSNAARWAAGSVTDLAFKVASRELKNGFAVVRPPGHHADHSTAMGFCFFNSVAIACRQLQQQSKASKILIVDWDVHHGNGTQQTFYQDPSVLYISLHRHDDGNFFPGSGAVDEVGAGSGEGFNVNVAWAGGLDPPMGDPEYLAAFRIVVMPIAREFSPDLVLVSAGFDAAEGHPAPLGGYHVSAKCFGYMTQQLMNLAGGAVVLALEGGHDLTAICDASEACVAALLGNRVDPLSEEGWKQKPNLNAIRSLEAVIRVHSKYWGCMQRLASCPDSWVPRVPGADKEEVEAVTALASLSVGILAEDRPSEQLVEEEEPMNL

Histone deacetylase 8 = biological target: T2, Histone deacetylase 8 (Homo sapiens, UniProt Q9BY41); experiment: Inhibition of human recombinant HDAC8 using ArgHisLysLys(Ac) as substrate by fluorescence based analysis
T2 sequence (Q9BY41 whole entry): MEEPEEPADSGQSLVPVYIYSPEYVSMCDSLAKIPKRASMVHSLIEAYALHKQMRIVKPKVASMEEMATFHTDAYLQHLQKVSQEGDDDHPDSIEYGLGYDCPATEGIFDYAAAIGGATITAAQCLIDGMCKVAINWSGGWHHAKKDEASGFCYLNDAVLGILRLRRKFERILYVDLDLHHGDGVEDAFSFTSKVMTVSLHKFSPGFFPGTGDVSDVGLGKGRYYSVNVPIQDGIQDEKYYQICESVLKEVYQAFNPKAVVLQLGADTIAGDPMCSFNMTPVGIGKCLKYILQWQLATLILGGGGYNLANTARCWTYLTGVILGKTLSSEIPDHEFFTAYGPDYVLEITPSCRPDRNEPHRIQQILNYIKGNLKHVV

[1] = biological target: T3, Polyamine deacetylase HDAC10 (Homo sapiens, UniProt Q969S8); experiment: Inhibition of human recombinant HDAC10 using ArgHisLysLys(Ac) as substrate by fluorescence based analysis
T3 sequence (Q969S8 whole entry): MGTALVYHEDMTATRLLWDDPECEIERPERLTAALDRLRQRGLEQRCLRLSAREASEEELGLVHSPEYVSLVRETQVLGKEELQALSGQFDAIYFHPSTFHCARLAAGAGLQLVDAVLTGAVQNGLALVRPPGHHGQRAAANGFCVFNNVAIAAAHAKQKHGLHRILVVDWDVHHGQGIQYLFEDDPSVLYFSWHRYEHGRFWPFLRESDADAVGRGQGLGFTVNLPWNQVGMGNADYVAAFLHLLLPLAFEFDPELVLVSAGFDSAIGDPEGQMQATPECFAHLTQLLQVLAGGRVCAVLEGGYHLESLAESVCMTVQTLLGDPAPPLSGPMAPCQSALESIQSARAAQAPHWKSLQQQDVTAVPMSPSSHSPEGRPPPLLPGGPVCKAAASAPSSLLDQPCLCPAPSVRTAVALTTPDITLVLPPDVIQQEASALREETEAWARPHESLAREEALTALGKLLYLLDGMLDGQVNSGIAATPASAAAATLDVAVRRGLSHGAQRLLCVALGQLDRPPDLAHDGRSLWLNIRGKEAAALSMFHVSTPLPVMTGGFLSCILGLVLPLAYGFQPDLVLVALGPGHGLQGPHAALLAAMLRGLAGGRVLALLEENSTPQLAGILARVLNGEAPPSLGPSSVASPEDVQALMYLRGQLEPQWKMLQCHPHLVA

Histone deacetylase 11 = biological target: T4, Histone deacetylase 11 (Homo sapiens, UniProt Q96DB2); experiment: Inhibition of human recombinant HDAC11 using ArgHisLysLys(Ac) as substrate by fluorescence based analysis
T4 sequence (Q96DB2 whole entry): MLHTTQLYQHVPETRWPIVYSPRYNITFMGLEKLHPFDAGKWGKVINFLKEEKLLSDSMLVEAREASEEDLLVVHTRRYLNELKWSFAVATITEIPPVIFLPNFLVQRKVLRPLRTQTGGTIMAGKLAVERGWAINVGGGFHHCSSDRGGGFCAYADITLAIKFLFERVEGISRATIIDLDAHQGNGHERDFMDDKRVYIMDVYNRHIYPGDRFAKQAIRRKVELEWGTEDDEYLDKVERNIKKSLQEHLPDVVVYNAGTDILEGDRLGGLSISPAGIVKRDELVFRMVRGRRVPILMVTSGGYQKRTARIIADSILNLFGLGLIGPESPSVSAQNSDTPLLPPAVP

Measured: IC50

Chain of Histone deacetylase 1 (Q13547 whole entry): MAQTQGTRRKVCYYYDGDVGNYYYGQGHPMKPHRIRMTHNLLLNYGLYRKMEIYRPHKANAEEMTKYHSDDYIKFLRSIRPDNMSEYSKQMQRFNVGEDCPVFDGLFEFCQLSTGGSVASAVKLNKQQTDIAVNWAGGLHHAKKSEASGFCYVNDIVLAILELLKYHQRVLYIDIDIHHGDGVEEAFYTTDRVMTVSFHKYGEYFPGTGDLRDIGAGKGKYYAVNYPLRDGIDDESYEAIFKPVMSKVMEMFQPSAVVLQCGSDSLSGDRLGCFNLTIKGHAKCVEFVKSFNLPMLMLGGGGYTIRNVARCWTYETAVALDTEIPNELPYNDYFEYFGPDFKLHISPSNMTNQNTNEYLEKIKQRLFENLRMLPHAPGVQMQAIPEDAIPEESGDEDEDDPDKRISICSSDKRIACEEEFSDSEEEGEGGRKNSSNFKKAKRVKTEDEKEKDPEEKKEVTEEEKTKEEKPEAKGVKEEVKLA

O=C(CCCCCC1CNC1=O)Nc1ccccc1 (stereo not drawn)
> 1000 µM: all assays above

O=C(CCCCC[C@@H]1CN(O)C1=O)Nc1ccccc1
> 1000 µM: all assays above

Nc1ccccc1N1CC(CCCCCC(=O)Nc2ccccc2)C1=O (stereo not drawn)
> 1000 µM: all assays above

O=C(CCCCC[C@H]1CN(O)C1=O)Nc1ccccc1
> 1000 µM: all assays above
